# Legend:
# [1] = molecular target: T1, human CB2 receptor (Homo sapiens, UniProt P34972); assay: CB2 radioligand competitive binding assay ([3H]CP 55,940 displacement); settings: for Selectivity CB2: fold difference in selectivity between CB1 and CB2 binding, printed in the column of the receptor with higher affinity, 1.00 = about the same affinity
# T1 construct: host or cells: CHO-K1
# Procedure: Compounds of the present disclosure were tested for CB1 receptor binding affinity and for CB2 receptor binding affinity. As used herein, “binding affinity” is represented by the IC50 value, which was experimentally determined as described herein. The lower the IC50 value the higher the binding affinity. A compound of the present disclosure may be said to have “binding selectivity” if it has a higher binding affinity for one receptor compared to the other.
# The membranes were prepared from CHO-K1 (Chinese hamster ovary) cells stably transfected with the human CB2 receptor (Cat.# ES-111-C; Perkin Elmer, Boston, Mass.). The cells were grown adherently and maintained in Ham's F12 medium containing 10% fetal bovine serum (FBS), penicillin, streptomycin and geneticin (G418) at 37° C. in a humid atmosphere of 5% CO2 following the manufacturer's instructions.
# For membrane preparation the cells were washed with PBS and scraped off the plates in cold homogenization buffer (25 mM HEPES (pH 7.4), 2 mM EDTA) containing protease inhibitor cocktail (Sigma Cat.# P8340). The cell suspension was homogenized with a Pro-PK-01200D Polytron Homogenizer (Pro Scientific) and then centrifuged for 30 min at 120,000×g. The supernatant was discarded and the pellet was re-suspended in the homogenization buffer and stored at −80° C. until the time of use.
# In this experiment, 3H radiolabeled CP 55,940, i.e. [3H]CP 55,940 (Perkin Elmer, Boston, Mass.), was used as a radioligand for the CB2 receptor to determine the binding affinity of compounds for the CB2 receptor (Scheme 7; above).
# The competition binding experiments (single dose and dose-response) were performed by incubating 0.6 nM of [3H]CP55,940 (specific activity 101 Ci/mmol, Perkin Elmer) and different concentrations of compounds disclosed herein with membranes prepared as above from CHO-K1 cells expressing human CB2 receptor (1 μg of protein/well), 50 mM Tris-HCl (pH 7.4), 5 mM MgCl2, 1 mM CaCl2, and 2 mg/mL BSA.
# For the single dose experiments, the compound stocks (usually 10 mM in DMSO) were diluted to working stocks in the binding buffer to give the final compound concentrations of 10 μM and 1 μM. For the dose-response experiments the test compounds were sequentially diluted to provide the desired concentration range for the IC50 determination. In each case the compounds were pre-incubated with the membrane for 20 min, before adding the radioligand.
# After incubation with the radioligand for 60 min at 37° C., the incubation was terminated by rapid filtration of assay mixture through MultiScreen®HTS^+ 96-well filter plates (Millipore, Cat.# MSFCNXB), pre-soaked for 60 min with 50 mM Tris-HCl (pH 7.4) containing 0.33% polyethylenimine (PEI). The nonspecific binding (NSB) was determined in the presence of 10 μM unlabelled CP55,940. After drying the filter plate at 50° C. for at least 60 min, the filter-bound radioactivity was determined by scintillation spectrometry using the 1450 MicroBeta Plate Counter (Perkin Elmer, Boston, Mass.). From the dose-response experiments, the IC50 values were determined (see Table 1, CB2 IC50).
# [2] = molecular target: T2, human CB1 receptor (Homo sapiens, UniProt P21554); assay: CB1 radioligand competitive binding assay ([3H]CP 55,940 displacement); settings: for Selectivity CB1: fold difference in selectivity between CB1 and CB2 binding, printed in the column of the receptor with higher affinity, 1.00 = about the same affinity
# T2 construct: host or cells: CHO-K1
# T2 sequence (P21554 whole entry): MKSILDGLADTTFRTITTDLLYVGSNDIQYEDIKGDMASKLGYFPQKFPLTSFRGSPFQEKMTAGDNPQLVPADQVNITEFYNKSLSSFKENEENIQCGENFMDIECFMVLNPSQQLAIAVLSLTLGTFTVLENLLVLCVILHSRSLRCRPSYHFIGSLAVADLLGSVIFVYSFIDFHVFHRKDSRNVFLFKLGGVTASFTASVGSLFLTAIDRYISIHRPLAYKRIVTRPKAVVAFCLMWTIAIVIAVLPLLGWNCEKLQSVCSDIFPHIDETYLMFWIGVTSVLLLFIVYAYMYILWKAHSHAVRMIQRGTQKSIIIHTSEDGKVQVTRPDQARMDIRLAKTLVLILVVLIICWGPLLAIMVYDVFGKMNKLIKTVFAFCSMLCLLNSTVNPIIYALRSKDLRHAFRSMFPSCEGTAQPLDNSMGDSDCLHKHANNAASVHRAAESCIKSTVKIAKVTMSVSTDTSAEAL
# [3] = molecular target: T2, human CB1 receptor; assay: PathHunter β-arrestin functional assay, CB1 receptor, agonist mode; type: cell-based; settings: PathHunter CHO-K1 CNR1 β-Arrestin cells; normalized to CP55,940
# Text: (§1) In the PathHunter® β-Arrestin system from DiscoveRx (Eurofins, Fremont, Calif.), a small peptide, the ProLink™ (PK), is fused to the intracellular sequence of a GPCR target, and a complementing peptide, the enzyme acceptor (EA) fragment, is fused to β-arrestin. After binding to its specific ligand, the GPCR target recruits β-arrestin, forcing the complementation of the two β-galactosidase enzyme fragments (EA and PK) to produce a functional β-galactosidase enzyme. The enzyme activity, and thus the amount of ligand bound to the GPCR, is detected with a single addition of a reagent cocktail to lyse the cells and produce a chemiluminescent signal before being analyzed using a traditional plate reader.
# (§2) PathHunter® CHO-K1 CNR1 β-Arrestin cells (DiscoverRx, cat. Number 93-0959C2) stably expressing CB1 receptor (CB1R) were grown in Ham's F12 medium containing 10% fetal bovine serum (FBS), 1% penicillin/streptomycin, 300 μg/mL Hygromycin B and 800 μg/mL geneticin (G418) and maintained in 37° C. incubators at 5% CO2. […]
# (§3) The incubation was terminated by adding the detection reagent (19 parts of 1% CHAPS, 5 parts Emerald-II and 1 part Galacton-Star), equivalent to 50% of the assay volume to each wells. Plates were incubated for 1 hour in the dark at room temperature, followed by chemiluminescence detection using a microplate reader.
# (§4) Data were analysed by generating nonlinear regression curves. […]
# [4] = molecular target: T2, human CB1 receptor; assay: PathHunter β-arrestin functional assay, CB1 receptor, antagonist mode; type: cell-based
# Text: as §1, §2, §3, §4
# T1 sequence (P34972 whole entry): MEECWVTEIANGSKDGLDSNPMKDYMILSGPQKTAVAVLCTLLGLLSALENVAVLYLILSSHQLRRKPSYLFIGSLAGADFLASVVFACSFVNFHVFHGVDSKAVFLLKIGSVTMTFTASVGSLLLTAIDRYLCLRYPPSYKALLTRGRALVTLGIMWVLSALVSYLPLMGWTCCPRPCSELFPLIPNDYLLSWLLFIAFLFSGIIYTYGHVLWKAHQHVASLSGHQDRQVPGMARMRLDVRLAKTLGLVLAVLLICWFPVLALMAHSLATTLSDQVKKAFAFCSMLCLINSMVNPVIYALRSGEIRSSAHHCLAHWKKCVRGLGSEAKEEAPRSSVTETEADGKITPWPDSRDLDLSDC
Compound,IC50 [1] [nM],Selectivity CB2 [1] [fold],IC50 [2] [nM],"activity towards the human CB1 receptor, agonist mode [3]",Selectivity CB1 [2] [fold],IC50 [4] [µM]
"CCCCCc1cc2c(c(O)c1-c1cccnc1)[C@@H]1C=C(C)CC[C@H]1C(C)(C)O2 [Compound 12b, 6,6,9-trimethyl-3-pentyl-2-(pyridin-3-yl)-6a,7,8,10a-tetrahydro-6H-benzo[c]chromen-1-ol]",500 to 990,1.57,500 to 990,minimal to no activity,,
"CCCCCc1cc2c(c(O)c1-c1cncnc1)[C@@H]1C=C(C)CC[C@H]1C(C)(C)O2 [Compound 13b, 6,6,9-trimethyl-3-pentyl-2-(pyrimidin-5-yl)-6a,7,8,10a-tetrahydro-6H-benzo [c] chromen-1-ol]",500 to 990,5.00,> 1000,,,
"CCCCCc1cc2c(c(O)c1-c1ccncc1)[C@@H]1C=C(C)CC[C@H]1C(C)(C)O2 [Compound 14b, 6,6,9-trimethyl-3-pentyl-2-(pyridin-4-yl)-6a,7,8,10a-tetrahydro-6H-benzo[c]chromen-1-ol]",100 to 490,1.77,100 to 490,,,
"CCCCCc1cc2c(c(O)c1-c1ccco1)[C@@H]1C=C(C)CC[C@H]1C(C)(C)O2 [Compound 15b, 2-(furan-2-yl)-6,6,9-trimethyl-3-pentyl-6a,7,8,10a-tetrahydro-6H-benzo[c]chromen-1-ol]",< 100,1.00,< 100,,1.00,
"CCCCCc1cc2c(c(O)c1-c1ccsc1)[C@@H]1C=C(C)CC[C@H]1C(C)(C)O2 [Compound 17b, 6,6,9-trimethyl-3-pentyl-2-(thiophen-3-yl)-6a,7,8,10a-tetrahydro-6H-benzo[c]chromen-1-ol]",< 100,3.43,100 to 490,,,
CCCCCc1cc2c(c(O)c1-c1cncs1)[C@@H]1C=C(C)CC[C@H]1C(C)(C)O2 [Compound 18b],> 1000,1.00,> 1000,,1.00,
"CCCCCc1cc2c(c(O)c1-c1ccnn1C)[C@@H]1C=C(C)CC[C@H]1C(C)(C)O2 [Compound 33b, 6,6,9-trimethyl-2-(1-methyl-1H-pyrazol-5-yl)-3-pentyl-6a,7,8,10a-tetrahydro-6H-benzo[c]chromen-1-ol]",100 to 490,1.61,100 to 490,,,
"CCCCCc1cc2c(c(O)c1-c1cc3ccccc3o1)[C@@H]1C=C(C)CC[C@H]1C(C)(C)O2 [Compound 34b, 2-(benzofuran-2-yl)-6,6,9-trimethyl-3-pentyl-6a,7,8,10a-tetrahydro-6H-benzo[c]chromen-1-ol]",100 to 490,4.41,500 to 990,,,
"CCCCCc1cc2c(c(O)c1-c1cn[nH]c1)[C@@H]1C=C(C)CC[C@H]1C(C)(C)O2 [Compound 35b, 6,6,9-trimethyl-3-pentyl-2-(1H-pyrazol-4-yl)-6a,7,8,10a-tetrahydro-6H-benzo[c]chromen-1-ol]",500 to 990,2.64,> 1000,,,
"CCCCCc1cc2c(c(O)c1-c1cc3ccccc3s1)[C@@H]1C=C(C)CC[C@H]1C(C)(C)O2 [Compound 36b, 2-(benzothiophen-2-yl)-6,6,9-trimethyl-3-pentyl-6a,7,8,10a-tetrahydrobenzo[c]chromen-1-ol]",100 to 490,5.67,> 1000,minimal to no activity,,~3
